Experimental data taken from patent publication US7666883B2, “Antimalarial Baylis-Hillman adducts and a process for the preparation thereof” (Council of Scientific and Industrial Research, priority 2005, dated 2010).
≈ marks a conversion by molar mass, not a printed value.

Legend:
Type in all cases: cell-based
[1] = system: Chloroquine sensitive (CQS) P. falciparum strain; test: Schizont maturation inhibition (SMI), chloroquine sensitive strain; conditions: Plasmodium falciparum, schizont maturation inhibition determined after 24 hr
Method: (§1) Parasites were cultured in O (+) erythrocytes in RPMI-1640 media supplemented with 25 mM HEPES buffer and 10% AB (+) serum by candlejar technique.^9 Initial culture was maintained in small vials (2.5 cm dia.) with 10% haematocrit, i.e. 10 μl erythrocytes containing 1.5% ring stage parasite in 100 μl complete media. The culture volume per well for the assay was 100 μl. Parasitamia was determined for each set of culture, number of parasites for the assay were adjusted at 1 to 1.5% by diluting with fresh O (+) RBC. Assay was done in 96 well microtitre flat-bottomed tissue culture plates. Parasite culture was synchronized at ring forms using density gradient method^10 and cultured for 24 h. in the presence of various doses of compounds and chloroquine for their effect in schizont maturation. Test was done in duplicate wells for each dose of the drugs. Control culture was done with RPMI-164 containing 10% AB (+) serum. Growth of the parasites from duplicate wells of each concentration was monitored in JSB stained^11 blood smears by counting number of schizont per 200 asexual parasites. Percent schizont maturation inhibition was calculated by the formula: (1−Nt/Nc)×100 where, Nt and Nc represent the number of schizont in the test and control well respectively.

[2] = system: Chloroquine sensitive (CQS) P. falciparum strain; test: Total parasite growth inhibition (PGI), chloroquine sensitive strain; conditions: Plasmodium falciparum, total parasite growth inhibition determined after 48 hr
[3] = system: Chloroquine resistant (CQR) P. falciparum strain; test: Schizont maturation inhibition (SMI), chloroquine resistant strain; conditions: Plasmodium falciparum, schizont maturation inhibition determined after 24 hr
Method: as §1

[4] = system: Chloroquine resistant (CQR) P. falciparum strain; test: Total parasite growth inhibition (PGI), chloroquine resistant strain; conditions: Plasmodium falciparum, total parasite growth inhibition determined after 48 hr

SMILES | IC50 [1] | IC90 [1] | IC50 [2] | IC90 [2] | IC50 [3] | IC90 [3] | IC50 [4] | IC90 [4]
C=C(C#N)C(O)c1ccc(C(=O)OC)nc1Cl (stereo not drawn) [Id, Methyl 6-chloro-5-(2-cyano-1-hydroxyallyl) 2-pyridine carboxylate] | 3.4 µg/mL (≈ 13.5 µM) | 22 µg/mL (≈ 87.1 µM) | 7 µg/mL (≈ 27.7 µM) | 29 µg/mL (≈ 115 µM) | 5.75 µg/mL (≈ 22.8 µM) | 25.5 µg/mL (≈ 101 µM) | 6.75 µg/mL (≈ 26.7 µM) | 29 µg/mL (≈ 115 µM)
C=C(C(=O)OC)C(O)c1cc(-c2ccccc2)cnc1Cl (stereo not drawn) [If, Methyl 2-[(2-chloro-5-phenylpyridine-3-yl)(hydroxy)methyl]acrylate] | 45 µg/mL (≈ 148 µM) | 125 µg/mL (≈ 412 µM) | 115 µg/mL (≈ 379 µM) | 350 µg/mL (≈ 1150 µM) | 5 µg/mL (≈ 16.5 µM) | 30 µg/mL (≈ 98.8 µM) | 10.8 µg/mL (≈ 35.4 µM) | 77.5 µg/mL (≈ 255 µM)
C=C(C#N)C(O)c1cc(C)cnc1Cl (stereo not drawn) [Ia, 2-[(2-Chloro-5-methylpyridine-3-yl)(hydroxy)methyl]acrylonitrile] | 1.25 µg/mL (≈ 5.99 µM) | 25.5 µg/mL (≈ 122 µM) | 1.3 µg/mL (≈ 6.23 µM) | 85 µg/mL (≈ 407 µM) | 22.5 µg/mL (≈ 108 µM) | 125 µg/mL (≈ 599 µM) | 10.5 µg/mL (≈ 50.3 µM) | 300 µg/mL (≈ 1440 µM)
C=C(C#N)C(O)c1cc(-c2ccccc2)cnc1Cl (stereo not drawn) [Ic, 2-[(2-Chloro-5-phenylpyridine-3-yl)(hydroxy)methyl]acrylonitrile] | 3.6 µg/mL (≈ 13.3 µM) | 25.5 µg/mL (≈ 94.2 µM) | 8 µg/mL (≈ 29.6 µM) | 23 µg/mL (≈ 85 µM) | 0.9 µg/mL (≈ 3.32 µM) | 1.5 µg/mL (≈ 5.54 µM) | 2.2 µg/mL (≈ 8.13 µM) | 6.75 µg/mL (≈ 24.9 µM)
C=C(C#N)C(O)c1cc(CC)cnc1Cl (stereo not drawn) [Ib, 2-[(2-Chloro-5-ethylpyridine-3-yl)(hydroxy)methyl]acrylonitrile] | 1.8 µg/mL (≈ 8.08 µM) | 15.5 µg/mL (≈ 69.6 µM) | 4 µg/mL (≈ 18 µM) | 31 µg/mL (≈ 139 µM) | 2.5 µg/mL (≈ 11.2 µM) | 6.5 µg/mL (≈ 29.2 µM) | 5.5 µg/mL (≈ 24.7 µM) | 26 µg/mL (≈ 117 µM)
C=C(C(=O)OC)C(O)c1cc(C)cnc1Cl (stereo not drawn) [Ie, Methyl 2-[(2-chloro-5-methylpyridine-3-)(hydroxy)methyl]acrylate] | 18 µg/mL (≈ 74.5 µM) | 32 µg/mL (≈ 132 µM) | 28.5 µg/mL (≈ 118 µM) | 115 µg/mL (≈ 476 µM) | 3.05 µg/mL (≈ 12.6 µM) | 7 µg/mL (≈ 29 µM) | 5.75 µg/mL (≈ 23.8 µM) | 27.5 µg/mL (≈ 114 µM)
